Measurements reported in EP4722236A1, “INSULIN DERIVATIVE AND USE THEREOF” (The United Bio-Technology (Hengqin) Co., Ltd., priority 2023, dated 2024).

How the values were obtained:
[1] = biological target: T1, human serum albumin (HSA) (Homo sapiens, UniProt P02768); experiment: In vitro binding to HSA via SPR (Biacore 8K)
Experimental: (§1) According to the instructions for the Amine Coupling Kit, Type 2 (Cytiva), immobilize human serum albumin onto the surface of the CM5 sensor chip of the S Series. […] Human serum albumin (HSA) was diluted to 20 µg/mL with acetic acid solution of pH 4.5. The EDC/NHS mixture solution, HSA protein solution, and 1M ethanolamine-hydrochloric acid solution were added to the detection plate according to the program settings. b) The detection plate was placed into the Biacore 8K sample compartment. The EDC/NHS mixture solution, HSA protein solution, and 1M ethanolamine-hydrochloric acid solution were sequentially injected into the channels on the surface of the CM5 chip by the Biacore 8K according to the program. Through this process, the chip was activated, the ligand was coupled, and the chip was deactivated. Each channel consists of two circulation pools, with circulation pool 1 serving as the reference channel undergoing only surface activation and deactivation without injection of HSA protein solution.
(§2) The detection plate was placed into the sample compartment of the Biacore 8K, with the running buffer serving as the 0-concentration reference sample. c) Run the detection program, with samples sequentially injected into each channel of the chip according to the program.
(§3) Finally, the data was analyzed using BiaCore Insight Evaluation Software, employing a 1:1 binding model for analysis.

normal SD rats = experiment: Pharmacodynamic study in normal SD rats (blood glucose, single subcutaneous dose); type: in vivo; settings: for Blood Glucose Levels: Table 4.2, SD rats, 650 nmol/kg s.c. single dose, Mean ± SEM, n = 8
Experimental: Normal male SD rats aged 8-9 weeks, body weight 280-320 g, were selected. Animals were housed in animal housing facilities with strictly controlled environmental conditions, where the temperature is maintained between 20°Cand 24°C and humidity was kept between 30 and 70%. During the experiment, animals were housed individually with free access to food and water.
After one week of adaptive feeding, the experiment commenced. Rats were assigned to Solvent group 1, Solvent group 2, and the treatment group based on body weight and blood glucose levels before administration, with eight rats per group. The administered doses were all 650 nmol/kg.
The above drugs were dissolved in the solvent to a concentration of 216.7 nmol/mL. The dosing volume is 3 mL/kg. For a single subcutaneous administration, with the administration time set as 0 hours, blood glucose levels were measured at 0 h before dosing, and at 4 h, 8 h, 24 h, 28 h, 48 h, 72 h, 96 h, and 120 h after dosing (without dietary restrictions).

[2] = biological target: T1, human serum albumin (HSA); settings: hsa on cm5 chip
Experimental: as §1, §2, §3

[3] = HSA on CM5 chip, 1:1 binding model

T1 sequence (P02768 25-609): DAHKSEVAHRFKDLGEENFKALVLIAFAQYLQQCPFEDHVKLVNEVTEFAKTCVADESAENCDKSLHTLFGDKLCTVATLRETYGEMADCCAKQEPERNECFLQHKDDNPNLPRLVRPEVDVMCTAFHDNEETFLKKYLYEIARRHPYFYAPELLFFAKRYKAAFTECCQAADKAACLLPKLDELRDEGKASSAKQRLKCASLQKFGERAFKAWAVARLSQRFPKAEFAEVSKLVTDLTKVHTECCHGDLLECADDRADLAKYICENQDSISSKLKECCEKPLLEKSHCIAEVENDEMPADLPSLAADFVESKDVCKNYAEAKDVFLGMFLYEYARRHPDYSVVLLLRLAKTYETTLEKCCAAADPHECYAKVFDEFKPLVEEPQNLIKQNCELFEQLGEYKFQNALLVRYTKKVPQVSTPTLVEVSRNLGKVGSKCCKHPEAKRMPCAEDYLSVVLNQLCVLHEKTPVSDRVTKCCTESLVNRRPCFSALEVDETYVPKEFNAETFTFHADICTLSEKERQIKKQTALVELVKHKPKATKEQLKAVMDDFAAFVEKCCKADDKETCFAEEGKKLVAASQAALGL

“A14E, B16H, B25H, B29K (N^ε-[1-(19-Carboxyl-nonadecyloxy)-β-D-glucuronyl]-γGlu-[2-(2-{2-[2-(2-Aminoethoxy) ethoxy]acetylamino}ethoxy)ethoxy]acetyl), desB27, desB30 human insulin [Compound 4]” was tested, and the ka [1, 3] was 612 M⁻¹ s⁻¹, the kd [1, 3] was 0.169 s⁻¹ and the “binding affinity to HSA” value ([1]; comparison in words with Icodec, SPR) was “superior binding affinity to HSA compared to Icodec”. For the same substance, the “Blood Glucose Levels” value (normal SD rats; 0 h (before dosing)) was 7.3 ± 0.1, the “Blood Glucose Levels” value (normal SD rats; 4 h) was 3.6±0.3 and the “Blood Glucose Levels” value (normal SD rats; 24 h) was 4.2±0.4. For the same substance, the “Blood Glucose Levels” value (normal SD rats; 48 h) was 4.4±0.5, the “Blood Glucose Levels” value (normal SD rats; 72 h) was 6.6±0.5 and the “Blood Glucose Levels” value (normal SD rats; 96 h) was 7.8±0.1. The “Blood Glucose Levels” value (normal SD rats; 120 h) was 7.5 ± 0.1, the hypoglycemic effect (normal SD rats; comparison in words with Icodec, SD rats, s.c.) was “superior to Icodec” and the Kd [2] was 275 µM.
